# Measured values: PubChem BioAssay (NCI)
#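 Protocol summary: plate cells (96-well), add compound at 5 concentrations, incubate 48 h, interpolate endpoints linearly. GI50 marks 50% less growth. TGI: total growth inhibition.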
# How the values were obtained:
# Experiment in all cases: inhibition of tumour cell growth, NCI panel, 48 h
# CCRF-CEM leukemia = test system: CCRF-CEM leukemia
# COLO 205 colon = test system: COLO 205 colon
# NCI-H460 lung = test system: NCI-H460 lung
# HL-60(TB) leukemia = test system: HL-60(TB) leukemia
# SNB-19 CNS = test system: SNB-19 CNS
# HOP-62 NSCLC = test system: HOP-62 NSCLC
# SF-539 CNS = test system: SF-539 CNS
# U251 CNS = test system: U251 CNS
# OVCAR-8 ovarian = test system: OVCAR-8 ovarian
# OVCAR-5 ovarian = test system: OVCAR-5 ovarian
SMILES,TGI (CCRF-CEM leukemia),TGI (COLO 205 colon),TGI (NCI-H460 lung),TGI (HL-60(TB) leukemia),TGI (SNB-19 CNS),TGI (HOP-62 NSCLC),TGI (SF-539 CNS),TGI (U251 CNS),TGI (OVCAR-8 ovarian),TGI (OVCAR-5 ovarian),GI50 (CCRF-CEM leukemia),GI50 (OVCAR-5 ovarian),GI50 (COLO 205 colon),GI50 (HL-60(TB) leukemia),GI50 (HOP-62 NSCLC),GI50 (SF-539 CNS),GI50 (U251 CNS),GI50 (OVCAR-8 ovarian),GI50 (NCI-H460 lung),GI50 (SNB-19 CNS)
O=C1C(Cl)N(c2ccccc2Cl)C1c1c[nH]c2ccccc12 (configuration not stated),> 100 µM,> 100 µM,> 100 µM,> 100 µM,> 100 µM,> 100 µM,> 100 µM,> 100 µM,> 100 µM,–,–,–,–,–,–,–,–,–,–,–
Oc1ccc(C(=C(Br)c2ccccc2)c2ccc(O)cc2)cc1,32.3 µM,–,31.6 µM,> 100 µM,17.1 µM,22.2 µM,18.8 µM,15.3 µM,22.2 µM,31.2 µM,–,–,–,–,–,–,–,–,–,–
CN1C(=O)CC(=O)N1/C(=C/c1ccccc1)c1ccccc1,54.3 µM,> 100 µM,> 100 µM,–,> 100 µM,> 100 µM,–,> 100 µM,> 100 µM,> 100 µM,–,–,–,–,–,–,–,–,–,–
O=C1c2cc3c(cc2-c2c1c1ccc(Cl)cc1c(=O)n2C[C@H](O)CO)OCO3,24.2 µM,10.1 µM,–,3.1 µM,–,1.51 µM,0.093 µM,1.28 µM,2.98 µM,1.15 µM,< 0.01 µM,0.119 µM,0.0954 µM,0.0331 µM,0.022 µM,0.0253 µM,0.0198 µM,0.0521 µM,–,–
CSCCC(C(=O)O)N(C)C (configuration not stated),> 100 µM,> 100 µM,> 100 µM,> 100 µM,> 100 µM,> 100 µM,> 100 µM,> 100 µM,> 100 µM,> 100 µM,–,–,–,–,–,–,–,–,–,–
O=C1c2cc(O)c(O)cc2O[C@H](c2ccc(O)c(O)c2)[C@H]1O,> 100 µM,> 100 µM,> 100 µM,> 100 µM,> 100 µM,> 100 µM,> 100 µM,> 100 µM,> 100 µM,> 100 µM,–,–,–,–,–,–,–,–,–,–
C=C(C#N)C(=O)OCC(CC)CC.C=C(C#N)C(=O)OCC(CC)CC.CS(C)=O.CS(C)=O.Nc1c(N=Nc2ccc(-c3ccc(N=Nc4cc(S(=O)(=O)[O-])c5ccccc5c4N)cc3)cc2)cc(S(=O)(=O)[O-])c2ccccc12.[Pt+2],> 100 µM,45.6 µM,> 100 µM,23.6 µM,> 100 µM,> 100 µM,> 100 µM,> 100 µM,42.3 µM,> 100 µM,30.7 µM,> 78.4 µM,22.3 µM,15.8 µM,> 82.8 µM,84.7 µM,46.7 µM,19.2 µM,44.4 µM,> 100 µM
C=CCNC(=O)C(C)C1CCC2(C)C=CC(=O)C(C)=C2C1O (configuration not stated),> 100 µM,> 100 µM,> 100 µM,> 100 µM,> 100 µM,> 100 µM,> 100 µM,> 100 µM,> 100 µM,> 100 µM,–,–,–,–,–,–,–,–,–,–
